Assay results reported in article PMC4826283 (Journal of nuclear medicine : official publication, Society …, 2014).

Tested on: kappa opioid receptor (KOR)
Test: in vivo PET receptor occupancy
Format: cell-based, Macaca mulatta
Details: rhesus monkey, brain

Cc1cc(C)cc([C@@H]2CCCN2Cc2ccc(Oc3ccc(C(N)=O)cc3F)cc2)c1 [LY2456302]
% occupancy at 0.3 mg/kg: 93 % occupancy at 0.3 mg/kg
